Where two headings read alike, the source gives them in different places.
What was measured:
[1] = system: Plasmodium berghei (Pb-Luc) exoerythrocytic-stage parasites; settings: for normalised signal at concentration 10 (first series): concentration 10, first series of dose columns; for normalised signal at concentration 10 (second series): concentration 10, second series of dose columns; for IC50: read-out: PbLuc_IC50
HepG2-A16-CD81EGFP cells = settings: for IC50: read-out: Tox_IC50, HepG2 cytotoxicity
[2] = sheet "2nd round", Broad compounds, dose response top concentration 10
[3] = 2nd round, maximal inhibition in dose series
[4] = sheet 2nd round, maximal inhibition in dose response

SMILES: CC(C)[C@@H]1COCc2cnnn2CCC[C@H](C)C(=O)N1 [BRD-K01882341-001-02-9]
- normalised signal at concentration 0.000508053 (first series) [1]: 0.8014
- normalised signal at concentration 0.000508053 (second series) [1]: 0.9562
- normalised signal at concentration 0.00152416 (first series) [1]: 0.9047
- normalised signal at concentration 0.00152416 (second series) [1]: 0.8755
- normalised signal at concentration 0.00457247 (first series) [1]: 0.9797
- normalised signal at concentration 0.00457247 (second series) [1]: 1.034
- normalised signal at concentration 0.0137174 (first series) [1]: 0.9629
- normalised signal at concentration 0.0137174 (second series) [1]: 0.9854
- normalised signal at concentration 0.0411523 (first series) [1]: 0.8726
- normalised signal at concentration 0.0411523 (second series) [1]: 0.8168
- normalised signal at concentration 0.123457 (first series) [1]: 0.9418
- normalised signal at concentration 0.123457 (second series) [1]: 1.121
- normalised signal at concentration 0.37037 (first series) [1]: 0.9345
- normalised signal at concentration 0.37037 (second series) [1]: 0.7926
- normalised signal at concentration 1.11111 (first series) [1]: 0.8828
- normalised signal at concentration 1.11111 (second series) [1]: 0.9806
- normalised signal at concentration 3.33333 (first series) [1]: 0.9641
- normalised signal at concentration 3.33333 (second series) [1]: 0.9379
- normalised signal at concentration 10 (first series) [1]: 1.091
- normalised signal at concentration 10 (second series) [1]: 0.8693
- IC50 [1, 2]: > 10 µM
- PbLuc_max_inhibition (%) ([1]; sheet "2nd round"): 21%
- IC50 (HepG2-A16-CD81EGFP cells; sheet "2nd round"): > 10 µM
- Tox_max_inhibition (%) (HepG2-A16-CD81EGFP cells; sheet "2nd round"): 4.53%

SMILES: COc1ccc(NC(=O)N(C)C[C@H]2Oc3c(NC(=O)CCCCCC(=O)Nc4ccccc4N)cccc3C(=O)N([C@@H](C)CO)C[C@H]2C)cc1 [BRD-K03339938-001-01-9]
- normalised signal at concentration 0.000508053 (first series) [1]: 1.103
- normalised signal at concentration 0.000508053 (second series) [1]: 1.02
- normalised signal at concentration 0.00152416 (first series) [1]: 0.9211
- normalised signal at concentration 0.00152416 (second series) [1]: 0.7891
- normalised signal at concentration 0.00457247 (first series) [1]: 0.9975
- normalised signal at concentration 0.00457247 (second series) [1]: 0.8582
- normalised signal at concentration 0.0137174 (first series) [1]: 0.9216
- normalised signal at concentration 0.0137174 (second series) [1]: 0.8637
- normalised signal at concentration 0.0411523 (first series) [1]: 0.9804
- normalised signal at concentration 0.0411523 (second series) [1]: 0.9024
- normalised signal at concentration 0.123457 (first series) [1]: 0.8136
- normalised signal at concentration 0.123457 (second series) [1]: 0.9499
- normalised signal at concentration 0.37037 (first series) [1]: 0.9387
- normalised signal at concentration 0.37037 (second series) [1]: 1.008
- normalised signal at concentration 1.11111 (first series) [1]: 0.9514
- normalised signal at concentration 1.11111 (second series) [1]: 0.9972
- normalised signal at concentration 3.33333 (first series) [1]: 1.011
- normalised signal at concentration 3.33333 (second series) [1]: 1.0698
- normalised signal at concentration 10 (first series) [1]: 1.4773
- normalised signal at concentration 10 (second series) [1]: 1.187
- IC50 [1, 2]: > 10 µM
- PbLuc_max_inhibition (%) ([1]; sheet "2nd round"): 21%
- IC50 (HepG2-A16-CD81EGFP cells; sheet "2nd round"): > 10 µM
- Tox_max_inhibition (%) (HepG2-A16-CD81EGFP cells; sheet "2nd round"): 4.46%

SMILES: C[C@H]1CN([C@@H](C)CO)C(=O)c2cccc(NC(=O)c3ccc(-c4nccs4)cc3)c2O[C@@H]1CN(C)C(=O)Nc1ccc(C(F)(F)F)cc1 [BRD-K03390828-001-01-5]
- PbLuc_max_inhibition (%) [1, 3]: 34%
- normalized signal at 0.000508053 (first series) ([1]; concentration 0.000508053, first replicate series, fraction of control): 0.9377
- normalized signal at 0.000508053 (second series) ([1]; concentration 0.000508053, second replicate series, fraction of control): 0.6684
- normalized signal at 0.00152416 (first series) ([1]; concentration 0.00152416, first replicate series, fraction of control): 0.8855
- normalized signal at 0.00152416 (second series) ([1]; concentration 0.00152416, second replicate series, fraction of control): 0.8915
- normalized signal at 0.00457247 (first series) ([1]; concentration 0.00457247, first replicate series, fraction of control): 0.8808
- normalized signal at 0.00457247 (second series) ([1]; concentration 0.00457247, second replicate series, fraction of control): 0.7577
- normalized signal at 0.0137174 (first series) ([1]; concentration 0.0137174, first replicate series, fraction of control): 0.9989
- normalized signal at 0.0137174 (second series) ([1]; concentration 0.0137174, second replicate series, fraction of control): 0.749
- normalized signal at 0.0411523 (first series) ([1]; concentration 0.0411523, first replicate series, fraction of control): 0.8536
- normalized signal at 0.0411523 (second series) ([1]; concentration 0.0411523, second replicate series, fraction of control): 0.9352
- normalized signal at 0.123457 (first series) ([1]; concentration 0.123457, first replicate series, fraction of control): 0.9414
- normalized signal at 0.123457 (second series) ([1]; concentration 0.123457, second replicate series, fraction of control): 0.925
- normalized signal at 0.37037 (first series) ([1]; concentration 0.37037, first replicate series, fraction of control): 0.9548
- normalized signal at 0.37037 (second series) ([1]; concentration 0.37037, second replicate series, fraction of control): 0.6557
- normalized signal at 1.11111 (first series) ([1]; concentration 1.11111, first replicate series, fraction of control): 1.032
- normalized signal at 1.11111 (second series) ([1]; concentration 1.11111, second replicate series, fraction of control): 0.7805
- normalized signal at 3.33333 (first series) ([1]; concentration 3.33333, first replicate series, fraction of control): 1.162
- normalized signal at 3.33333 (second series) ([1]; concentration 3.33333, second replicate series, fraction of control): 0.8715
- normalized signal at 10 (first series) ([1]; concentration 10, first replicate series, fraction of control): 0.7935
- normalized signal at 10 (second series) ([1]; concentration 10, second replicate series, fraction of control): 0.8747
- IC50 ([1]; 2nd round, Broad DOS compounds, unit not printed (dose series head 10 to 0.000508053)): > 10 µM
- Tox_max_inhibition (%) (HepG2-A16-CD81EGFP cells; [3]): 6.57%
- IC50 (HepG2-A16-CD81EGFP cells; 2nd round, unit inferred): > 10 µM

SMILES: COc1ccc(CNC(=O)C[C@H]2CC[C@@H](NC(=O)CN(C)C)[C@H](CO)O2)cc1 [BRD-K05060234-001-01-0]
- normalised signal at concentration 0.000508053 (first series) [1]: 0.9876
- normalised signal at concentration 0.000508053 (second series) [1]: 0.95
- normalised signal at concentration 0.00152416 (first series) [1]: 0.9394
- normalised signal at concentration 0.00152416 (second series) [1]: 1.006
- normalised signal at concentration 0.00457247 (first series) [1]: 1.108
- normalised signal at concentration 0.00457247 (second series) [1]: 1.09
- normalised signal at concentration 0.0137174 (first series) [1]: 1.028
- normalised signal at concentration 0.0137174 (second series) [1]: 1.083
- normalised signal at concentration 0.0411523 (first series) [1]: 1.04
- normalised signal at concentration 0.0411523 (second series) [1]: 1.112
- normalised signal at concentration 0.123457 (first series) [1]: 1.099
- normalised signal at concentration 0.123457 (second series) [1]: 1.024
- normalised signal at concentration 0.37037 (first series) [1]: 1.009
- normalised signal at concentration 0.37037 (second series) [1]: 0.9385
- normalised signal at concentration 1.11111 (first series) [1]: 1.251
- normalised signal at concentration 1.11111 (second series) [1]: 1.0925
- normalised signal at concentration 3.33333 (first series) [1]: 1.234
- normalised signal at concentration 3.33333 (second series) [1]: 0.8448
- normalised signal at concentration 10 (first series) [1]: 0.9455
- normalised signal at concentration 10 (second series) [1]: 0.8679
- IC50 [1, 2]: > 10 µM
- PbLuc_max_inhibition (%) ([1]; sheet "2nd round"): 16%
- IC50 (HepG2-A16-CD81EGFP cells; sheet "2nd round"): > 10 µM
- Tox_max_inhibition (%) (HepG2-A16-CD81EGFP cells; sheet "2nd round"): 11%

SMILES: O=C(Nc1ccccc1F)N1CCCCN2[C@H](CO)[C@H](c3ccc(/C=C/c4ccccc4)cc3)[C@H]2C1 [BRD-K88581921-001-01-3]
- IC50 (HepG2-A16-CD81EGFP cells; sheet 2nd round): > 10 µM
- Tox_max_inhibition (%) (HepG2-A16-CD81EGFP cells; [4]): 3%

SMILES: O=C(Nc1ccc(Cl)cc1)N1C[C@@H]2[C@H](c3ccccc31)[C@@H](CO)N2CC1CCCCC1 [BRD-K89605819-001-01-4]
- IC50 (HepG2-A16-CD81EGFP cells; sheet "2nd round"): > 10 µM
- Tox_max_inhibition (%) (HepG2-A16-CD81EGFP cells; sheet "2nd round"): 4.75%

SMILES: N#C[C@@H]1[C@H](c2ccccc2C2=CCCCC2)[C@H](CO)N1S(=O)(=O)c1ccccc1 [BRD-K90570429-001-01-9]
- IC50 (HepG2-A16-CD81EGFP cells; sheet "2nd round"): > 10 µM
- Tox_max_inhibition (%) (HepG2-A16-CD81EGFP cells; sheet "2nd round"): 8%

SMILES: CO[C@@H]1CN(C)C(=O)c2ccc(NC(=O)NC(C)C)cc2OC[C@@H](C)N(Cc2ccccc2)C[C@H]1C [BRD-K91191258-001-01-9]
- IC50 (HepG2-A16-CD81EGFP cells; sheet 2nd round): > 10 µM
- Tox_max_inhibition (%) (HepG2-A16-CD81EGFP cells; [4]): 9%

— paper PMC4890880 (ACS infectious diseases, 2016)
